According to patent US20140018316A1, “OPHTHALMIC PHARMACEUTICAL COMPOSITION” (Hayashibara Co., Ltd., priority 2005, published 2014):

What was measured:
pig lens = assay: Swelling and cloudiness of extracted pig lenses soaked in test or control solutions (traumatic cataract model); parameters: key to degree of cloudiness in the lens (relative value): relative gray-scale density; uninjured lens in saline at start = 10; conditions: for degree of cloudiness in the lens (relative value) / swelling of the lens: 100 mM in physiological saline
Description: Using an injured pig lens employed as a model for traumatic cataract, the influence of cyclic tetrasaccharide on the cloudiness in the lens was experimented as follows: A test solution was previously prepared by dissolving a cyclic tetrasaccharide crystal, penta hydrate, which had been prepared by the method in the later described Reference for Example 2, in physiological saline into a physiological saline containing 100 mM cyclic tetrasaccharide. As a positive control, a physiological saline containing 100 mM α,α-trehalose, a reagent grade specimen, commercialized by Hayashibara Biochemical Laboratories, Inc., Okayama, Japan, was used; andasanegativecontrol, physiological saline was used. Two milliliter aliquots of any one of the above three kinds of aqueous solutions were added to every two wells in respective commercialized 24-well culture plates. In one of the two wells containing the same kind of solution in each plate was placed a pig lens, which had been obtained from a slaughter-house, extracted by incision within three hours after the obtention and without injuring, and washing the extracted lens with physiological saline; while in the other of the two wells was placed a pig lens, which had been prepared by the same procedure as in the above but injured with a 27-gauge injection needle (commercialized by Terumo Co., Tokyo, Japan) to form an injured line, about one millimeter in length. These lens were allowed to stand at ambient temperature and macroscopically and microscopically observed their change in the degree of cloudiness and in the shape of swelling, etc. This experiment was run in a triplicate manner, and the macroscopic and microscopic observations were done just after (0), 1 hour, 2 hours, 6 hours, and 24 hours after the lenses were placed in the wells, and then observed daily over 28 days. A similar experiment was further conducted using a physiological saline containing 75 mM, 50 mM, 20 mM, 10 mM, or 1 mM cyclic tetrasaccharide and a lens that had not been injured with the injection needle. The degree of cloudiness in each lens, observed with “STEREOMICROSCOPE SZX12”, a product name of a stereomicroscope commercialized by Olympus Co., Tokyo, Japan, was expressed by photographing a transmitted light image of each lens with “PENGUIN 150CL”, a digital camera commercialized by Pixela Co., Tokyo, Japan, capturing the transmitted image by a computer using a view finder commercialized by Olympus Co., Tokyo, Japan, and expressing numerically the degree of light and shade of the captured image as a gray-scale using “Scion Image for Windows Beta 4.0.2”, a software commercialized by Scion Co., Maryland, U.S.A., to obtain a mean density for each lens. The time course change in the degree of cloudiness in each lens placed in each solution was expressed with a relative value, regarding the degree of cloudiness, just after the lens free of injury had been placed in physiological saline, as 10. The change of cloudiness and swelling are respectively in Tables 1 and 2. In Table 1, there show only the results from time 0 hour through two days and from days 7, 14 and 28.

[1] = test system: circular corneal fragment extracted from a pig eye ball; assay: Corneal walleye/cloudiness and edema of pig corneal fragments soaked in test or control solutions; parameters: degree of corneal walleye/cloudiness (relative value): scale not given here; key to corneal edema: ◯: Corneal edema was observed.; —: No corneal edema was observed; conditions: for corneal edema / degree of corneal walleye/cloudiness (relative value): 100 mM in physiological saline
Description: Experiment to examine the influence of cyclic tetrasaccharide on corneal walleye/cloudiness was conducted as follows: A physiological saline containing 100 mM cyclic tetrasaccharide was previously prepared for use as a test solution by dissolving a cyclic tetrasaccharide crystal, pentahydrate, which had been prepared by the later described method in Example for Reference 2. As a positive control solution, it was prepared a physiological saline containing 100 mM α,α-trehalose, a reagent grade specimen, commercialized by Hayashibara Biochemical Laboratories, Inc., Okayama, Japan; and as a negative control solution, physiological saline was used. Two milliliters of any one of the above three kinds of aqueous solutions were added to respective two wells in a commercialized 24-well culture plate. To each well in each culture plate a circular corneal fragment, which had been extracted from a pig eye ball obtained from a slaughterhouse by using a trephine for corneal transplantation, was placed and macroscopically and microscopically observed for changing in both the degree of corneal walleye/cloudiness and the change of corneal shape such as corneal edema. The macroscopic and microscopic observations were done just after the corneas were placed in the wells at (0) and at 1, 2, 6, 24, 48 and 72 hours after their placing. The methods of macroscopic and microscopic observations and the analysis of the time course change of corneal walleye/cloudiness were conducted by the same ones as used in Experiment 1. Tables 3 and 4 show the transition of corneal walleye/cloudiness and that of the corneal edema, respectively.

OC[C@H]1O[C@H](O[C@H]2O[C@H](CO)[C@@H](O)[C@H](O)[C@H]2O)[C@H](O)[C@@H](O)[C@@H]1O [Positive control solution, α,α-trehalose, reference compound]
degree of cloudiness in the lens (relative value) (pig lens; injured lens, 1 hour): 10 | degree of cloudiness in the lens (relative value) (pig lens; injured lens, 2 hours): 10 | degree of cloudiness in the lens (relative value) (pig lens; injured lens, 6 hours): 15 | degree of cloudiness in the lens (relative value) (pig lens; injured lens, 24 hours): 46 | degree of cloudiness in the lens (relative value) (pig lens; injured lens, 2 days): 89 | swelling of the lens (pig lens; injured lens, 2 days): ◯ (swelling was observed) | degree of cloudiness in the lens (relative value) (pig lens; injured lens, time 0): 10 | degree of cloudiness in the lens (relative value) (pig lens; no injury, 1 hour): 13 | degree of cloudiness in the lens (relative value) (pig lens; no injury, 2 hours): 13 | degree of cloudiness in the lens (relative value) (pig lens; no injury, 6 hours): 12 | degree of cloudiness in the lens (relative value) (pig lens; no injury, 24 hours): 14 | degree of cloudiness in the lens (relative value) (pig lens; no injury, 2 days): 19 | degree of cloudiness in the lens (relative value) (pig lens; no injury, 7 days): 36 | degree of cloudiness in the lens (relative value) (pig lens; no injury, 14 days): 39 | degree of cloudiness in the lens (relative value) (pig lens; no injury, 28 days): 75 | swelling of the lens (pig lens; no injury, 28 days): ◯ (swelling was observed) | degree of cloudiness in the lens (relative value) (pig lens; no injury, time 0): 10 | swelling of the lens (in words) (pig lens; 100 mM, injured lens, 2 days after initiating observation): observed to have swelling from 2 days | cloudiness in the lens compared with the negative control solution (pig lens; 100 mM, lenses with no injury): inhibited | swelling of the lens (in words) (pig lens; 100 mM, lenses with no injury, on 28 days): swelling of the lenses was macroscopically observed | corneal edema ([1]; 1 hour): — | degree of corneal walleye/cloudiness (relative value) ([1]; 1 hour): 11 | corneal edema ([1]; 2 hours): — | degree of corneal walleye/cloudiness (relative value) ([1]; 2 hours): 11 | corneal edema ([1]; 6 hours): — | degree of corneal walleye/cloudiness (relative value) ([1]; 6 hours): 13 | corneal edema ([1]; 24 hours): ◯ | degree of corneal walleye/cloudiness (relative value) ([1]; 24 hours): 30 | corneal edema ([1]; 48 hours): ◯ | degree of corneal walleye/cloudiness (relative value) ([1]; 48 hours): 60 | corneal edema ([1]; 72 hours): ◯ | degree of corneal walleye/cloudiness (relative value) ([1]; 72 hours): 70 | corneal edema ([1]; time 0): — | degree of corneal walleye/cloudiness (relative value) ([1]; time 0): 10 | corneal edema (in words) ([1]; 100 mM, at 24 hours): macroscopic corneal edema
